From patent publication US20160251342A1, “ALDEHYDE DERIVATIVE OF SUBSTITUTED OXAZOLIDINONES” (WANBURY LTD., priority 2012, published 2016)

Tests used:
[1] = In vitro stability in rat plasma (LC-MS); type: in vitro ADME
Method: The final concentration of the test compound in the assay is 5 micromolar. […] C. The 100 microlitres of aliquot at time point was removed and diluted with ice cold acetonitrile containing IS (200 µL) to stop the reactions. Samples are centrifuged at 10,000 RPM for 5 minutes to precipitate proteins. Supernatants are transferred to micro centrifuge tubes and stored at −20° C. for analysis of LC/MS/MS. The percent parent remaining of the test substance is calculated as ratio of peak area at each time point to peak area ratio at zero min, multiplied by 100.
API 4000, ESI Agilent 1100 column: Gemini Nx 100 mm×4.6 mm 5.μ; column temperature: 30° C.; eluent A: 0.1% formic acid in water, eluent B: acetonitrile; gradient: 0-2.5 min 95% A, 5% B; 2.5-2.6 min 5% A, 95% B; 2.6-4.2 min 95% A, 5% B; flow rate: 0.8 ml/min; ESI. Q1:464.098, Q3:144.255

CYP isoforms = experiment: CYP inhibition studies, overall interpretation; type: in vitro ADME, humans; conditions: compound formula-B with other drug when administered
Method: The ability of substances to inhibit CYP1A2, CYP2C9, CYP2D6, CYP2C19, CYP2J2 and CYP3A4 in humans was investigated with pooled human liver microsomes as enzyme source in the presence of standard substrates (see below) which form CYP-isoform-specific metabolites.
Standard incubation mixtures comprise NADPH and substrates in 100 mM phosphate buffer (pH 7.4) in a total volume of 200 μl. Test compound are dissolved in acetonitrile. Incubated with pooled human liver microsomes at 37° C. for a defined time. The reactions are stopped by adding 100 μl of acetonitrile in which a suitable internal standard is always present. Precipitated proteins are removed by centrifugation, and the supernatants analyzed by LC-MS/MS. The data represents the extrapolated IC50 (μM) concentration derived from 3 μM.
This is an essential parameter to gauge drug-drug interactions.

plasma protein = experiment: Plasma protein binding (dialysis), human; type: in vitro ADME
Method: A compound solution (1 mM in DMSO) (5 μL), according to the invention is added to the respective plasma matrices of rat or human or mouse (1 ml).
Add 150 μl of phosphate buffer to receiving side of the dialysis well. […] Precipitate with Acetonitrile and dilute samples prior to analysis in 1.5 ml polypropylene tubes. Remove 50 μl from the sample side of dialysis well and add 50 μl of phosphate buffer+300 μl of acetonitrile containing IS. Remove 50 μl from the buffer side of the dialysis well and add 50 μl of respective matrix plasma+300 μl of ACN. Then vortexed and centrifuged for 5 min, and supernatant is taken and injected into LCMS.
Different test concentration ranging from 0.1 μM to 20 μM are made in methanol:water (90:10). Test solutions are added to the premixed matrix containing plasma:phosphate buffer (50:50). Precipitate with 300 μl of ice cold acetonitrile containing IS, vortexes and centrifuged. Supernatant is taken and injected into LCMS.
Percentage of plasma protein binding was obtained via Equation (2): % Fraction unbound=(concentration on the buffer side/concentration on the sample side)*100

[2] = Anticoagulant activity (PT, APTT) in human plasma; type: biochemical; conditions: 0.1 to 1.0 μg/mL, PT and APTT
Method: The anticoagulant action of the test substance (compound formula-B) and rivaroxaban was determined in vitro using human plasma. The human plasma used for this experiment was separated from the blood collected in sodium citrate as anticoagulant. The prothrombin time (PT) was determined by using a commercial test kit (Neoplastin from Stagid) and APTT was determined using (Synthasil kit by IL). […] Coagulation was then started by addition of thromboplastin, and time when coagulation occurred was determined. The concentration of test substance which effected a doubling of prothrombin time was determined.

## O=CN(C[C@H]1CN(c2ccc(N3CCOCC3=O)cc2)C(=O)O1)C(=O)c1ccc(Cl)s1 [compound formula (B), 5-chloro-N-formyl-N-({(5S)-2-oxo-3-[4-(3-oxomorpholin-4-yl)phenyl]-1,3-oxazolidin-5-yl}methyl)thiophene-2-carboxamide]
[1]
  Amount of test product detected (conversion to rivaroxaban from zero min): min. Neglible
CYP isoforms
  Interpretation: drug-drug interaction: Low drug-drug interaction
Plasma protein
  Observation: amount of test product: Not quantificable amount of test
  Observation: formed Rivaroxaban bound to plasma protein: Rivaroxaban found to be High
[2]
  Anticoagulant activity: significant anticoagulant activity
